In PubChem BioAssay (NCI):
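GI50 is the concentration that inhibits growth by half. Definition used: TGI = concentration required for complete inhibition of growth.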

Key:
Experiment in all cases: inhibition of tumour cell growth, NCI panel, 384-well format
HCC-2998 colon = system: HCC-2998 colon
786-0 renal = system: 786-0 renal
SK-MEL-5 melanoma = system: SK-MEL-5 melanoma
HCT-116 colon = system: HCT-116 colon
UACC-62 melanoma = system: UACC-62 melanoma
A549 NSCLC = system: A549 NSCLC
MCF7 breast = system: MCF7 breast
SF-295 CNS = system: SF-295 CNS
T-47D breast = system: T-47D breast
MALME-3M melanoma = system: MALME-3M melanoma
OVCAR-5 ovarian = system: OVCAR-5 ovarian
M14 melanoma = system: M14 melanoma
SW-620 colon = system: SW-620 colon
A498 renal = system: A498 renal
U251 glioblastoma = system: U251 glioblastoma
OVCAR-8 ovarian = system: OVCAR-8 ovarian
HCT-15 colon = system: HCT-15 colon
KM12 colon = system: KM12 colon
UO-31 renal = system: UO-31 renal
HT29 colon = system: HT29 colon
SK-MEL-28 melanoma = system: SK-MEL-28 melanoma
SN12C renal = system: SN12C renal
HS 578T breast = system: HS 578T breast
MDA-MB-231 breast = system: MDA-MB-231 breast
SF-268 CNS = system: SF-268 CNS
BT-549 breast = system: BT-549 breast
IGROV1 ovarian = system: IGROV1 ovarian
MDA-MB-435 melanoma = system: MDA-MB-435 melanoma
SK-OV-3 ovarian = system: SK-OV-3 ovarian
SF-539 CNS = system: SF-539 CNS
DU-145 prostate = system: DU-145 prostate
EKVX NSCLC = system: EKVX NSCLC
NCI-H322M lung = system: NCI-H322M lung
CCRF-CEM leukemia = system: CCRF-CEM leukemia
LOX IMVI melanoma = system: LOX IMVI melanoma
RPMI-8226 leukemia = system: RPMI-8226 leukemia
CAKI-1 renal = system: CAKI-1 renal
HL-60(TB) leukemia = system: HL-60(TB) leukemia
NCI-H522 lung = system: NCI-H522 lung
UACC-257 melanoma = system: UACC-257 melanoma
NCI-H226 lung = system: NCI-H226 lung
HOP-92 NSCLC = system: HOP-92 NSCLC
MDA-MB-468 breast = system: MDA-MB-468 breast
TK-10 renal = system: TK-10 renal
NCI-H23 lung = system: NCI-H23 lung
NCI-H460 NSCLC = system: NCI-H460 NSCLC
SNB-19 CNS = system: SNB-19 CNS
HOP-62 NSCLC = system: HOP-62 NSCLC
SNB-75 CNS = system: SNB-75 CNS
OVCAR-4 ovarian = system: OVCAR-4 ovarian
MOLT-4 leukemia = system: MOLT-4 leukemia
COLO 205 colon = system: COLO 205 colon
K-562 leukemia = system: K-562 leukemia
OVCAR-3 ovarian = system: OVCAR-3 ovarian
ACHN renal = system: ACHN renal
PC-3 prostate = system: PC-3 prostate
NCI/ADR-RES ovarian = system: NCI/ADR-RES ovarian
RXF 393 renal = system: RXF 393 renal

Structure (SMILES): CN[C@@H](C)C(=O)N[C@H](C(=O)N1CCC[C@H]1c1nc(C(=O)c2ccc(F)cc2)cs1)C1CCCCC1
- GI50 (HCC-2998 colon): 14.2 µM
- TGI (HCC-2998 colon): 27.4 µM
- GI50 ([…]-0 renal): 15.8 µM
- TGI (786-0 renal): 29.3 µM
- GI50 (SK-MEL-5 melanoma): 10.2 µM
- TGI (SK-MEL-5 melanoma): 21.8 µM
- GI50 (HCT-116 colon): 18 µM
- TGI (HCT-116 colon): 32.3 µM
- GI50 (UACC-62 melanoma): 18.7 µM
- TGI (UACC-62 melanoma): 34.1 µM
- GI50 (A549 NSCLC): 26.8 µM
- TGI (A549 NSCLC): > 100 µM
- GI50 (MCF7 breast): 11.7 µM
- TGI (MCF7 breast): 26.1 µM
- GI50 (SF-295 CNS): 16.4 µM
- TGI (SF-295 CNS): 30.9 µM
- GI50 (T-47D breast): 13.1 µM
- TGI (T-47D breast): 27.6 µM
- GI50 (MALME-3M melanoma): 0.33 µM
- TGI (MALME-3M melanoma): 2.99 µM
- GI50 (OVCAR-5 ovarian): 23.4 µM
- TGI (OVCAR-5 ovarian): 51 µM
- GI50 (M14 melanoma): 18.2 µM
- TGI (M14 melanoma): 32.2 µM
- GI50 (SW-620 colon): 23.9 µM
- TGI (SW-620 colon): 47.8 µM
- GI50 (A498 renal): 15.5 µM
- TGI (A498 renal): 29.1 µM
- GI50 (U251 glioblastoma): 15.9 µM
- TGI (U251 glioblastoma): 29.7 µM
- GI50 (OVCAR-8 ovarian): 10.2 µM
- TGI (OVCAR-8 ovarian): 24.1 µM
- GI50 (HCT-15 colon): 20.3 µM
- TGI (HCT-15 colon): 42 µM
- GI50 (KM12 colon): 17.3 µM
- TGI (KM12 colon): 32.2 µM
- GI50 (UO-31 renal): 30 µM
- TGI (UO-31 renal): > 100 µM
- GI50 (HT29 colon): 17.1 µM
- TGI (HT29 colon): 31.1 µM
- GI50 (SK-MEL-28 melanoma): 16.4 µM
- TGI (SK-MEL-28 melanoma): 30 µM
- GI50 (SN12C renal): 53.8 µM
- TGI (SN12C renal): > 100 µM
- GI50 (HS 578T breast): 5.06 µM
- TGI (HS 578T breast): 20.8 µM
- GI50 (MDA-MB-231 breast): 0.597 µM
- TGI (MDA-MB-231 breast): 3.29 µM
- GI50 (SF-268 CNS): 18.5 µM
- TGI (SF-268 CNS): 36.9 µM
- GI50 (BT-549 breast): 12 µM
- TGI (BT-549 breast): 24.4 µM
- GI50 (IGROV1 ovarian): 21.2 µM
- TGI (IGROV1 ovarian): 39.5 µM
- GI50 (MDA-MB-435 melanoma): 14.1 µM
- TGI (MDA-MB-435 melanoma): 33.5 µM
- GI50 (SK-OV-3 ovarian): 0.0692 µM
- TGI (SK-OV-3 ovarian): 1.58 µM
- GI50 (SF-539 CNS): 17.5 µM
- TGI (SF-539 CNS): 31.3 µM
- GI50 (DU-145 prostate): 17.9 µM
- TGI (DU-145 prostate): 39.3 µM
- GI50 (EKVX NSCLC): 18.7 µM
- TGI (EKVX NSCLC): 41.3 µM
- GI50 (NCI-H322M lung): 20.3 µM
- TGI (NCI-H322M lung): 51.4 µM
- GI50 (CCRF-CEM leukemia): 7.4 µM
- TGI (CCRF-CEM leukemia): 20.7 µM
- GI50 (LOX IMVI melanoma): 16.2 µM
- TGI (LOX IMVI melanoma): 29.7 µM
- GI50 (RPMI-8226 leukemia): 6.69 µM
- TGI (RPMI-8226 leukemia): 20 µM
- GI50 (CAKI-1 renal): 25.5 µM
- TGI (CAKI-1 renal): 48.4 µM
- GI50 (HL-60(TB) leukemia): 0.612 µM
- TGI (HL-60(TB) leukemia): 3 µM
- GI50 (NCI-H522 lung): 6.47 µM
- TGI (NCI-H522 lung): 20.8 µM
- GI50 (UACC-257 melanoma): 15.4 µM
- TGI (UACC-257 melanoma): 28.8 µM
- GI50 (NCI-H226 lung): 21.7 µM
- TGI (NCI-H226 lung): 60.5 µM
- GI50 (HOP-92 NSCLC): 4.3 µM
- TGI (HOP-92 NSCLC): 19 µM
- GI50 (MDA-MB-468 breast): 1.86 µM
- TGI (MDA-MB-468 breast): 13.8 µM
- GI50 (TK-10 renal): 21.2 µM
- TGI (TK-10 renal): 53.3 µM
- GI50 (NCI-H23 lung): 13.3 µM
- TGI (NCI-H23 lung): 35.2 µM
- GI50 (NCI-H460 NSCLC): 20.2 µM
- TGI (NCI-H460 NSCLC): 34.8 µM
- GI50 (SNB-19 CNS): 31.8 µM
- TGI (SNB-19 CNS): > 100 µM
- GI50 (HOP-62 NSCLC): 3.25 µM
- TGI (HOP-62 NSCLC): 17.6 µM
- GI50 (SNB-75 CNS): 10.1 µM
- TGI (SNB-75 CNS): 25.6 µM
- GI50 (OVCAR-4 ovarian): 0.044 µM
- TGI (OVCAR-4 ovarian): 0.51 µM
- GI50 (MOLT-4 leukemia): 13.1 µM
- TGI (MOLT-4 leukemia): 25.7 µM
- GI50 (COLO 205 colon): 17.1 µM
- TGI (COLO 205 colon): 32.5 µM
- GI50 (K-562 leukemia): 16.8 µM
- TGI (K-562 leukemia): 30.5 µM
- GI50 (OVCAR-3 ovarian): 11.4 µM
- TGI (OVCAR-3 ovarian): 25.2 µM
- GI50 (ACHN renal): 23.3 µM
- TGI (ACHN renal): 56.7 µM
- GI50 (PC-3 prostate): 19.5 µM
- TGI (PC-3 prostate): 38.7 µM
- GI50 (NCI/ADR-RES ovarian): 17.1 µM
- TGI (NCI/ADR-RES ovarian): 34.9 µM
- GI50 (RXF 393 renal): 0.409 µM
- TGI (RXF 393 renal): 11.1 µM
